Laboratory results as given in patent US20090093485A1, “Novel Sulphonamide Derivatives as Glucocorticoid Receptor Modulators for the Treatment of Inflammatory Diseases” (ASTRAZENECA AB, priority 2004, published 2009).
pIC50: −log10 of the molar value.

target: T1, recombinant human GR (Homo sapiens, UniProt P04150); assay: Human Glucocorticoid Receptor (GR) Assay (fluorescence polarization, Panvera/Invitrogen kit); format: binding; details: GS Red tracer, incubated at room temperature for 2 hours, 100% control 10 μM Dexamethasone, read-out: GRhuFL_FP_v2 (GR-binders) IC50
T1 construct: purchased Panvera/Invitrogen P2812 (kit P2893)
T1 sequence (P04150 1-777): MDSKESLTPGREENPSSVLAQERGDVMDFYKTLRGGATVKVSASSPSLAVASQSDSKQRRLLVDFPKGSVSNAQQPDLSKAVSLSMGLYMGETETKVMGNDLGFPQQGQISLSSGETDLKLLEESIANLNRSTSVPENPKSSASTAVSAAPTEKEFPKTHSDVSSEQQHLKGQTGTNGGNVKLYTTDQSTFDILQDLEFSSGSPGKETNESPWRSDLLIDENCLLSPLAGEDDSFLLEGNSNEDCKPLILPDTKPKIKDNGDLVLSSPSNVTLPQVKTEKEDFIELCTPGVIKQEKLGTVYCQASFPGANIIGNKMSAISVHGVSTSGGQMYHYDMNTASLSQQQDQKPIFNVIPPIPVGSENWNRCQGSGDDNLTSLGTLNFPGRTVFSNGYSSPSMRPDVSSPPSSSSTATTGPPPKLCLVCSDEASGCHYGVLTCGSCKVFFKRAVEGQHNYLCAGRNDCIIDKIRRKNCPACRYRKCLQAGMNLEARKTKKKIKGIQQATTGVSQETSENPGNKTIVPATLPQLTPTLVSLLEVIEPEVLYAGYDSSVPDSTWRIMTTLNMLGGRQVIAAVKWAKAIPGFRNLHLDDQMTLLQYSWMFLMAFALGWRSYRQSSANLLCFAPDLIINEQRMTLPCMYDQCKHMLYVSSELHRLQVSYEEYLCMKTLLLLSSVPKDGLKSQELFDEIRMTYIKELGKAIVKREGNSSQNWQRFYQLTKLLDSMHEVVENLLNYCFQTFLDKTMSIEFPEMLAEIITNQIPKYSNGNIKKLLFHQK
Experimental: Human Glucocorticoid Receptor (GR) Assay
The assay is based on a commercial kit from Panvera/Invitrogen (Part number P2893). The assay technology is fluorescence polarization. The kit utilises recombinant human GR (Panvera, Part number P2812), a Fluoromone™ labelled tracer (GS Red, Panvera, Part number P2894) and a Stabilizing Peptide 10X (Panvera, Part number P2815). The GR and Stabilizing Peptide reagents are stored at −70° C. while the GS Red is stored at −20° C. Also included in the kit are 1M DTT (Panvera, Part number P2325, stored at −20° C.) and GR Screening buffer 10X (Panvera, Part number P2814, stored at −70° C. initially but once thawed stored at room temperature). Avoid repeated freeze/thaws for all reagents. The GR Screening buffer 10X comprises 100 mM potassium phosphate, 200 mM sodium molybdate, 1 mM EDTA and 20% DMSO.
Test compounds (1 μL) and controls (1 μL) in 100% DMSO were added to black polystyrene 384-well plates (Greiner low volume black flat-bottom, part number 784076). […] was 100% DMSO and 100% control was 10 μM Dexamethasone. Background solution (8 μL; assay buffer 10X, Stabilizing Peptide, DTT and ice cold MQ water) was added to the background wells. GS Red solution (7 μL; assay buffer 10X, Stabilizing Peptide, DTT, GS Red and ice cold water) was added to all wells except background wells. GR solution (7 μL; assay buffer 10X, Stabilizing Peptide, DTT, GR and ice cold water) was added to all wells. The plate was sealed and incubated in a dark at room temperature for 2 hours. The plate was read in an Analyst plate reader (LJL Biosystems/Molecular Devices Corporation) or other similar plate reader capable of recording fluorescence polarization (excitation wavelength 530 nm, emission wavelength […] and a dichroic mirror at 561 nm). The IC50 values were calculated using XLfit model 205.

Structure (SMILES)	pIC50
Cc1csc(NC(=O)CN(CC(C)C)S(=O)(=O)c2cccc3ccccc23)n1 [Example 7]	6.15
CCOc1ccc(S(=O)(=O)NCCc2ccc(S(N)(=O)=O)cc2)c2cccnc12 [Example 6]	6.15
CCCCOc1ccc(NS(=O)(=O)c2cccc3c(N(C)C)cccc23)cn1 [Example 16]	5.36
Cc1cc(C)c(S(=O)(=O)N[C@@H](C)COc2cccc3[nH]ccc23)c(C)c1 [Example 78, N-[(1S)-2-(1H-Indol-4-yloxy)-1-methylethyl]-2,4,6-trimethylbenzenesulfonamide]	7.64
Cc1cc(C)c(S(=O)(=O)NCCc2c(C)[nH]c3ccc(C)cc23)c(C)c1 [Example 8]	5.92
C=CCN(c1nc(C)c(Cl)c(OC)n1)S(=O)(=O)c1ccc(C)cc1 [Example 14]	5.77
CC(C)c1cc(C(C)C)c(S(=O)(=O)NCc2ccncc2)c(C(C)C)c1 [Example 10]	6.22
O=[N+]([O-])c1cc(Cl)ccc1NCCCNS(=O)(=O)c1ccc2ccccc2c1 [Example 5]	6.19
Cc1cc(NC(=O)CN(C2CCCCC2)S(=O)(=O)c2cccc3ccccc23)no1 [Example 12]	5.22
Cc1cc(C)c(S(=O)(=O)NC(C)CCc2ccccc2)c(C)c1 (stereo not drawn) [Example 32, 2,4,6-Trimethyl-N-(1-methyl-3-phenyl-propyl)-benzenesulfonamide]	7.05
CCNc1nc(NC(C)C)nc(OCCNS(=O)(=O)c2cc(C)ccc2C)n1 [Example 15]	5.20
CCCN(c1nc(C)c(Cl)c(OC)n1)S(=O)(=O)c1ccc(C)cc1 [Example 9]	5.80
COC(=O)c1c(C)oc2ccc(N(C(=O)c3ccncc3)S(=O)(=O)c3ccc(C)cc3C)cc12 [Example 11]	5.66
Cc1cc(NC(=O)CN(CC2CCCCC2)S(=O)(=O)c2cccc3ccccc23)no1 [Example 13]	5.66
Cc1cccc(C)c1OCC(C)NS(=O)(=O)c1cccc([N+](=O)[O-])c1 (stereo not drawn) [Example 34, N-[2-(2,6-Dimethyl-phenoxy)-1-methyl-ethyl]-3-nitro-benzenesulfonamide]	5.52
Cc1cc(Br)ccc1S(=O)(=O)NC(C)CCc1ccccc1 (stereo not drawn) [Example 19, 4-Bromo-2-methyl-N-(1-methyl-3-phenyl-propyl)-benzenesulfonamide]	6.27
Cc1cc(C)c(S(=O)(=O)N[C@@H](C)COc2cccc3cnccc23)c(C)c1 [Example 77, N-[(1S)-2-(5-Isoquinolinyloxy)-1-methylethyl]-2,4,6-trimethylbenzenesulfonamide]	7.77

Other lines, results leading:

pIC50	Structure (SMILES)
5.47	Cc1cc(C)c(S(=O)(=O)N[C@@H](C)COc2ncnc3ccccc23)c(C)c1 [Example 82, 2,4,6-Trimethyl-N-[(1S)-1-methyl-2-(4-quinazolinyloxy)ethyl]benzenesulfonamide]
7.12	Cc1cc(C)c(S(=O)(=O)N[C@@H](C)CNc2cccc3ncccc23)c(C)c1 [Example 126, 2,4,6-Trimethyl-N-[(1S)-1-methyl-2-(quinolin-5-Ylamino)ethyl]benzenesulfonamide]
7.38	Cc1cc(C)c(S(=O)(=O)N[C@@H](C)CNc2cccc3[nH]ncc23)c(C)c1 [Example 125, N-[(1S)-2-(1H-Indazol-4-ylamino)-1-methylethyl]-2,4,6-trimethylbenzenesulfonamide]
6.85	Cc1cc(C)c(S(=O)(=O)N[C@@H](C)COc2cccc3ncccc23)c(C)c1 [Example 79, 2,4,6-Trimethyl-N-[(1S)-1-methyl-2-(5-quinolinyloxy)ethyl]benzenesulfonamide]
6.43	Cc1cc(C)c(S(=O)(=O)N[C@@H](C)COc2ccnc3ccccc23)c(C)c1 [Example 81, 2,4,6-Trimethyl-N-[(1S)-1-methyl-2-(4-quinolinyloxy)ethyl]benzenesulfonamide]
7.02	Cc1nn(-c2ccccc2)c(C)c1S(=O)(=O)N[C@@H](C)COc1cccc2cnccc12 [Example 160, N-[(1S)-2-(Isoquinolin-5-yloxy)-1-methylethyl]-3,5-dimethyl-1-phenyl-1-pyrazole-4-sulfonamide]
6.64	Cc1cc(C)c(S(=O)(=O)N[C@@H](C)COc2ccc3c(c2)OCO3)c(C)c1 [Example 80, N-[(1S)-2-(1,3-Benzodioxol-5-yloxy)-1-methylethyl]-2,4,6-trimethylbenzenesulfonamide]
5.05	Cc1cc(C)c(S(=O)(=O)N[C@@H](C)COc2cccc3cccnc23)c(C)c1 [Example 83, 2,4,6-Trimethyl-N-[(1S)-1-methyl-2-(8-quinolinyloxy)ethyl]benzenesulfonamide]
7.74	Cc1cc(C)c(S(=O)(=O)N[C@@H](C)CNc2ccc(C)c3ncccc23)c(C)c1 [Example 123, 2,4,6-Trimethyl-N-{(1S)-1-methyl-2-[(8-methylquinolin-5-yl)amino]ethyl}-benzenesulfonamide]
7.70	Cc1cc(C)c(S(=O)(=O)N[C@@H](C)CNc2c(C)ccc3ncccc23)c(C)c1 [Example 124, 2,4,6-Trimethyl-N-{(1S)-1-methyl-2-[(6-methylquinolin-5-yl)amino]ethyl}-benzenesulfonamide]
